This is an account of results in patent US5338684A, “Stable aqueous FK506 standards” (Abbott Laboratories, priority 1993, dated 1994).

The format of series [1] is physicochemical. An excerpt:
The stability of the composition can be determined by measuring the decrease in the measured amount of FK506 in the aqueous composition with time. […] In a composition of the invention useful as a standard for a diagnostic assay, generally the amount of FK506 initially present in the aqueous composition maintained at a temperature of 37 degrees Celsius will decrease over a period of 7 days by less than 20 percent by weight, and typically by less than 5 percent by weight

Series [2] is classed as physicochemical, human. As for the experimental part:
This example illustrates the utilization of blood cell fragments according to the invention to stabilize FK506 in an aqueous matrix. Human blood cells were lysed by sonication or by repetitive freeze-thaw cycles respectively. Lysis was judged complete by the absence of blood cells under microscopic examination. Except for the utilization of lysed human blood cells instead of whole blood cells, the FK506 standards were prepared in the same manner as in Example 1 above.

Series [3] is classed as physicochemical, human. From the text: This example illustrates the utilization of human packed red blood cells (with EDTA as anticoagulant) and saline in an aqueous, FK506-containing composition of the invention. It also illustrates the enhanced stability of FK506 in this composition of the invention compared to the stability of FK506 in comparative serum and plasma compositions.
Human packed red blood cells (with sufficient EDTA added to prevent coagulation) were mixed in equal parts by volume with saline (0.9 percent by weight sodium chloride solution), human plasma or human serum. Three freeze-thaw cycles were done on each matrix combination to lyse the cells. The pH on each matrix was adjusted to pH 6.0 with 3 Molar (M) citric acid. FK506 standards were made in each matrix and stability at […] was evaluated as described above.
This is another data set of the same source.

The format of series [4] is physicochemical. An excerpt: Whole blood has the undesirable characteristic of thickening at elevated temperatures. Thickened blood can be difficult or impossible to pipet which can make a blood matrix completely unsuitable as a standard for a diagnostic assay.
Whole blood (plus sufficient EDTA to prevent coagulation) was lysed by freeze-thaw cycles and diluted with saline so as to be at final saline concentrations of 10, 20 and 30 percent by volume. FK506 in methanol was spiked into the matrix to make standards and the stability was evaluated at 37 degrees Celsius as described above.
The source holds these as a separate data set.

Series [5] is classed as physicochemical, human. As for the experimental part: This example illustrates the preparation of an aqueous composition of the invention utilizing whole human blood containing the anticoagulant, ethylenediamine tetraacetic acid (EDTA). It also illustrates a comparison of the stability of FK506 in the aqueous composition of the invention with the stability of FK506 in a synthetic blood matrix (prepared by adding hemoglobin to human serum) and with the stability of FK506 in plasma and serum
A synthetic blood matrix was prepared by adding hemoglobin (10 grams/deciliter) to human serum. A stock standard of FK506 in methanol (10 micrograms FK506/ml) was spiked into this synthetic matrix to provide two initial concentrations of 32.2 nanograms FK506/ml (ng/ml)(high) and 7.5 ng/ml (low). A composition of the invention was prepared by adding the stock standard of FK506 in methanol (10 micrograms FK506/ml) into human whole blood (containing sufficient EDTA to prevent coagulation ) to provide two initial concentrations of 47.1 ng/ml (high) and 9.3 ng/ml (low). The stability of these two different matrices was evaluated by placing the four different standards at 37 degrees Celsius and determining the concentration of FK506 present as a function of time.
This is another data set of the same source.

Series [6] is classed as physicochemical, sheep. As for the experimental part:
(§1) This example illustrates the suitability of non-human blood sources for a composition of the invention. In this example both sheep blood (non-lysed as in Example 1 above and containing the anti-coagulant citrate) and horse blood (lysed by freeze-thaw cycles as in Example 2 above and containing the anti-coagulant EDTA) were utilized. FK506 standards were made in each matrix and stability was evaluated at 37 degrees Celsius as described above.

The format of series [7] is physicochemical. On the procedure:
FK506 was spiked into plasma and serum and the stability at 37 degrees Celsius was evaluated as for human blood and the synthetic matrix above. The plasma contained sufficient EDTA as anti-coagulant to prevent coagulation.
Comparative plasma and serum matrices were prepared by adding a stock standard of FK506 in methanol (10 micrograms FK506/ml) to the plasma and serum matrices to provide two initial concentrations of 41.8 ng/ml (high) and 18.4 ng/ml (low) for the plasma and two initial concentrations of 44.9 ng/ml (high) and 22.4 ng/ml (low) for the serum. As for the human blood and synthetic matrix above, the stability of these two different matrices was evaluated by placing the four different standards at 37 degrees Celsius and determining the concentration of FK506 present as a function of time.
This is another data set of the same source.

Series [8] is classed as physicochemical, horse. As for the experimental part:
as §1

Series [9] relates to monoclonal antibody directed against FK506 (Fujisawa clone #1-60-46). Description: Microparticle capture enzyme immunoassay (MEIA) for FK506, competitive with FK506-alkaline phosphatase conjugate. The format is binding. As to conditions: pH 6.0. As for the experimental part: In general an analyte such as FK506 is determined in an MEIA by quantifying the rate of fluorescence development when a fluorogenic substrate is converted by the action of an enzyme-labeled conjugate. MEIAs as run on the IMx® analyzer generally utilize a reagent pack containing microparticle reagent, an alkaline phosphatase conjugate, fluorogenic substrate and, optionally, a diluent buffer specific for the FK506 assay. Submicron microparticles coated with a capture molecule specific for FK506 being measured are used as the solid phase. […] The effective surface area of these polystyrene latex microparticles, which number in the millions, is several-fold greater than that of a 1/4 inch diameter polystyrene bead commonly used in other commercial immunoassays. Because of this large surface area and the very small diffusion distance between analyte and the capture molecules on the surface of the microparticles, the capture phase of the MEIA typically reaches equilibrium within several minutes, allowing excellent throughput.
Unlike homogeneous fluorescent polarization immunoassays, the heterogeneous MEIA requires a separation step. After incubation of the microparticles with specimen, the microparticles are separated from the reaction mixture by transferring it to an inert glass fiber matrix in the MEIA reaction cell. This glass fiber surface provides a precisely located mechanical support for the microparticles during the subsequent optical read phase of the assay. The microparticles and bound analyte adhere strongly to the glass fibers, while the remaining specimen components are washed through the pores of the matrix to an underlying absorbent blotter. Detection of the immune complex on the glass fiber matrix is accomplished using an alkaline phosphatase-labeled conjugate. Conjugate is either incubated with the specimen and microparticles in a typical one step IMx® MEIA or applied to the matrix after the initial wash step. It is contemplated that an MEIA for FK506 run on the IMx® analyzer can be configured either in a "sandwich" or competitive assay format. […]
In either configuration, the specifically bound alkaline phosphatase on the microparticles is detected by addition of a fluorogenic substrate, typically 4-methylumbelliferyl phosphate (4-MUP), to the matrix. […] The liberated 4-MU is detected by the IMx® MEIA optics assembly, a front surface fluorometer designed to detect fluorescence of low concentrations of 4-MU without interference by fluorescence of 4-MUP at 367 nanometers (nm). A system of lenses and optical filters focuses filtered light (365 nm wavelength) from a mercury arc lamp onto the surface of the matrix and focuses emitted fluorescence from 4-MU (448 nm wavelength) onto a photomultiplier tube. About 5% of the excitation light is detected by a photodiode, allowing normalization of the fluorescence data and generation of a control signal used by the lamp power supply to maintain the intensity of the excitation light within 5% over the useful life of the lamp. The instrument then uses linear regression analysis to convert the data from 8 successive determinations of 4-MU fluorescence to a rate, which rate is proportional to the concentration of alkaline phosphatase conjugate specifically bound to the microparticles, from which the concentration of FK506 in the sample can be determined. […]

[10] abbreviates: aqueous blood cell composition, 168 h.

`C=CC[C@@H]1/C=C(\C)C[C@H](C)C[C@H](OC)[C@H]2O[C@@](O)(C(=O)C(=O)N3CCCC[C@H]3C(=O)O[C@H](/C(C)=C/[C@@H]3CC[C@@H](O)[C@H](OC)C3)[C@H](C)[C@@H](O)CC1=O)[C@H](C)C[C@@H]2OC` [FK506]: the “stability at acidic pH” value in series [1] is reported as “enhanced somewhat at acidic pH”. The “stability in aqueous matrices” value in [1] is “unstable”. The “decrease of the amount of FK506 initially present, generally” value in series [1] (setting [10]) is on record as “less than 20 percent by weight”. Moreover, in [1] (setting [10]), the “decrease of the amount of FK506 initially present, typically” value is “less than 5 percent by weight”. Moreover, the “stability in lysed blood” value in [2] is listed as “more stable at 45 degrees Celsius than FK506 standards in serum, plasma or synthetic blood at 37 degrees Celsius”. Further, the “stability in packed red cell matrices” value in series [3] was “more stable in any of them relative to serum, plasma or synthetic blood matrices”. The “most stable matrix” value in series [3] (saline vs plasma or serum dilution, 45 degrees Celsius) is reported as “the most stable matrix was blood diluted with saline”. Also, the “stability in saline-diluted lysed blood” value in series [4] is listed as “good stability”. Besides, the “stability in blood vs synthetic matrix” value in series [5] was “much more stable in blood than in the synthetic matrix”. In addition, the “stability in sheep blood” value in [6] is reported as “excellent stability”. The “stability in plasma” value in series [7] is “very unstable in plasma and serum”. For the same molecule, the “stability in serum” value in series [7] was “very unstable in plasma and serum”. In [8], the “stability in horse blood” value was “excellent stability”. For the same molecule, the “Fluorescent Rate” value in series [9] (10 ng/ml FK506 in lysed human whole blood) is reported as 288; in series [9] (20 ng/ml FK506 in lysed human whole blood) it was 197; in series [9] (30 ng/ml FK506 in lysed human whole blood) it was 150; in series [9] (50 ng/ml FK506 in lysed human whole blood) it was 111; in series [9] (80 ng/ml FK506 in lysed human whole blood) it was 79.
